Results taken from patent US11547681B2, “N-acylethanolamide derivatives and uses thereof” (ELIEM THERAPEUTICS, INC., priority 2016, dated 2023).
Each block holds one molecule with its values, some of them ahead of it.

Test: in vitro
Details: for Concentration (μM) of analyte PEA, 0 min / Concentration (μM) of analyte PEA, 10 min / Concentration (μM) of analyte PEA, 20 min / Concentration (μM) of analyte PEA, 30 min / Concentration (μM) of analyte PEA, 60 min / % Remaining of Initial (n = 1), 0 min / % Remaining of Initial (n = 1), 10 min / % Remaining of Initial (n = 1), 20 min / % Remaining of Initial (n = 1), 30 min / % Remaining of Initial (n = 1), 60 min: 1 μM; for % Remaining of Initial (n = 1), 0 min: s9, 0 h; for % Remaining of Initial (n = 1), 10 min: s9, 10 min; for % Remaining of Initial (n = 1), 20 min: s9, 20 min; for % Remaining of Initial (n = 1), 30 min: s9, 0.5 h; for % Remaining of Initial (n = 1), 60 min: s9, 1 h; for half-life at 1 μM: s9, Half-life (min)
Procedure: Reaction mixture, minus cofactors, was prepared as described below. Test article was added into the reaction mixture at a final concentration of 1 μM. […] An aliquot of the reaction mixture (without cofactor cocktail) was equilibrated in a shaking water bath at 37° C. for 3 minutes. The reaction was initiated by the addition of cofactor cocktail (see below), and the mixture was then incubated in a shaking water bath at 37° C. Aliquots (100 μL) were withdrawn 0, 10, 20, 30 and 60 minutes. Test article samples were immediately combined with 300 μL of ice-cold acetonitrile containing 1% formic acid. Control samples were immediately combined with 400 μL of ice-cold 50/50 acetonitrile (ACN)/dH2O containing 0.1% formic acid and internal standard to terminate the reaction. Samples were then mixed and centrifuged to precipitate proteins. Calibration standards were prepared in matched matrix. Samples and standards were assayed by LC-MS/MS using electrospray ionization for both the dosed prodrug and the expected drug (PEA). Analytical conditions are outlined in Appendix 8-1. Test article concentration at each time point was compared to the test article concentration at time 0 to determine the percent remaining at each time point. Half-lives were calculated using GraphPad software, fitting to a single-phase exponential decay equation.
Reaction mixture, minus cofactors, was prepared as described below. Test article was added into the reaction mixture at a final concentration of 1 μM. […] An aliquot of the reaction mixture (without cofactor cocktail) was equilibrated in a shaking water bath at 37° C. for 5 minutes. Reaction was initiated by the addition of cofactor cocktail (see below), and mixture was then incubated in a shaking water bath at 37° C. Aliquots (100 μL) were withdrawn at 0, 10, 20, 30, and 60 minutes. Test article samples were immediately combined with 300 μL of ice-cold acetonitrile containing 1% formic acid. Control samples were immediately combined with 400 μL of ice-cold 50/50 acetonitrile (ACN)/dH2O containing 0.1% formic acid and internal standard to terminate the reaction. Samples were then mixed and centrifuged to precipitate proteins. Calibration standards were prepared in matched matrix. Samples and standards were assayed by LC-MS/MS using electrospray ionization for both dosed prodrug and expected drug (PEA). Analytical conditions are outlined in Appendix 10-1. Test article concentration at each time point was compared to test article concentration at time 0 to determine the percent remaining at each time point. Half-lives were calculated using GraphPad software, fitting to a single-phase exponential decay equation.
The reaction mixture, minus cofactors, was prepared as described below. Test article was added into the reaction mixture at a final concentration of 1 μM. […] An aliquot of the reaction mixture (without cofactor cocktail) was equilibrated in a shaking water bath at 37° C. for 3 minutes. Reaction was initiated by the addition of cofactor cocktail (see below), and the mixture was then incubated in a shaking water bath at 37° C. Aliquots (100 μL) were withdrawn at 0, 10, 20, 30, and 60 minutes. Test article samples were immediately combined with 300 μL of ice-cold acetonitrile containing 1% formic acid. Control samples were immediately combined with 400 μL of ice-cold 50/50 acetonitrile (ACN)/dH2O containing 0.1% formic acid and internal standard to terminate the reaction. Samples were then mixed and centrifuged to precipitate proteins. Calibration standards were prepared in matched matrix. Samples and standards were assayed by LC-MS/MS using electrospray ionization for both dosed prodrug and expected drug (PEA). Analytical conditions are outlined in Appendix 13-1. Test article concentration at each time point was compared to the test article concentration at time 0 to determine the percent remaining at each time point.

- Concentration (μM) of analyte PEA, 0 min (both, human): 0.024 µM
- Concentration (μM) of analyte PEA, 10 min (both, human): 0.036 µM
- Concentration (μM) of analyte PEA, 20 min (both, human): 0.036 µM
- Concentration (μM) of analyte PEA, 30 min (both, human): 0.025 µM
- Concentration (μM) of analyte PEA, 60 min (both, human): 0.018 µM
- % Remaining of Initial (n = 1), 0 min (both, human): 100%
- % Remaining of Initial (n = 1), 10 min (both, human): 80%
- % Remaining of Initial (n = 1), 20 min (both, human): 81%
- % Remaining of Initial (n = 1), 30 min (both, human): 70%
- % Remaining of Initial (n = 1), 60 min (both, human): 72%
- half-life at 1 μM (both, human): > 1 h
- Concentration (μM) of analyte PEA, 0 min (male, Beagle, dog): 0.024 µM
- Concentration (μM) of analyte PEA, 10 min (male, Beagle, dog): 0.044 µM
- Concentration (μM) of analyte PEA, 20 min (male, Beagle, dog): 0.036 µM
- Concentration (μM) of analyte PEA, 30 min (male, Beagle, dog): 0.041 µM
- Concentration (μM) of analyte PEA, 60 min (male, Beagle, dog): 0.038 µM
- % Remaining of Initial (n = 1), 0 min (male, Beagle, dog): 100%
- % Remaining of Initial (n = 1), 10 min (male, Beagle, dog): 72%
- % Remaining of Initial (n = 1), 20 min (male, Beagle, dog): 79%
- % Remaining of Initial (n = 1), 30 min (male, Beagle, dog): 74%
- % Remaining of Initial (n = 1), 60 min (male, Beagle, dog): 85%
- half-life at 1 μM (male, Beagle, dog): > 1 h
- Concentration (μM) of analyte PEA, 0 min (male, CD-1, mouse): 0.046 µM
- Concentration (μM) of analyte PEA, 10 min (male, CD-1, mouse): 0.061 µM
- Concentration (μM) of analyte PEA, 20 min (male, CD-1, mouse): 0.043 µM
- Concentration (μM) of analyte PEA, 30 min (male, CD-1, mouse): 0.029 µM
- Concentration (μM) of analyte PEA, 60 min (male, CD-1, mouse): 0.018 µM
- % Remaining of Initial (n = 1), 0 min (male, CD-1, mouse): 100%
- % Remaining of Initial (n = 1), 10 min (male, CD-1, mouse): 66%
- % Remaining of Initial (n = 1), 20 min (male, CD-1, mouse): 50%
- % Remaining of Initial (n = 1), 30 min (male, CD-1, mouse): 59%
- % Remaining of Initial (n = 1), 60 min (male, CD-1, mouse): 50%
- Concentration (μM) of analyte PEA, 0 min (male, Sprague-Dawley, rat): 0.020 µM
- Concentration (μM) of analyte PEA, 10 min (male, Sprague-Dawley, rat): 0.025 µM
- Concentration (μM) of analyte PEA, 20 min (male, Sprague-Dawley, rat): 0.037 µM
- Concentration (μM) of analyte PEA, 30 min (male, Sprague-Dawley, rat): 0.026 µM
- Concentration (μM) of analyte PEA, 60 min (male, Sprague-Dawley, rat): 0.013 µM
- % Remaining of Initial (n = 1), 0 min (male, Sprague-Dawley, rat): 100%
- % Remaining of Initial (n = 1), 10 min (male, Sprague-Dawley, rat): 98%
- % Remaining of Initial (n = 1), 20 min (male, Sprague-Dawley, rat): 82%
- % Remaining of Initial (n = 1), 30 min (male, Sprague-Dawley, rat): 75%
- % Remaining of Initial (n = 1), 60 min (male, Sprague-Dawley, rat): 67%
- half-life at 1 μM (male, Sprague-Dawley, rat): > 1 h
- half-life at 1 μM (male, Sprague-Dawley, rat, calculated half-life in parentheses): 1.52 h
Structure (SMILES): CC/C=C\C/C=C\C/C=C\C/C=C\C/C=C\CCCC(=O)OCCNC(=O)CCCCCCCCCCCCCCC [Compound I-5]

- Concentration (μM) of analyte PEA, 0 min (both, human): 0.014 µM
- Concentration (μM) of analyte PEA, 10 min (both, human): 0.037 µM
- Concentration (μM) of analyte PEA, 20 min (both, human): 0.022 µM
- Concentration (μM) of analyte PEA, 30 min (both, human): 0.022 µM
- Concentration (μM) of analyte PEA, 60 min (both, human): 0.016 µM
- % Remaining of Initial (n = 1), 0 min (both, human): 100%
- % Remaining of Initial (n = 1), 10 min (both, human): 80%
- % Remaining of Initial (n = 1), 20 min (both, human): 102%
- % Remaining of Initial (n = 1), 30 min (both, human): 95%
- % Remaining of Initial (n = 1), 60 min (both, human): 77%
- half-life at 1 μM (both, human): > 1 h
- Concentration (μM) of analyte PEA, 0 min (male, Beagle, dog): 0.016 µM
- Concentration (μM) of analyte PEA, 10 min (male, Beagle, dog): 0.044 µM
- Concentration (μM) of analyte PEA, 20 min (male, Beagle, dog): 0.041 µM
- Concentration (μM) of analyte PEA, 30 min (male, Beagle, dog): 0.049 µM
- Concentration (μM) of analyte PEA, 60 min (male, Beagle, dog): 0.037 µM
- % Remaining of Initial (n = 1), 0 min (male, Beagle, dog): 100%
- % Remaining of Initial (n = 1), 10 min (male, Beagle, dog): 101%
- % Remaining of Initial (n = 1), 20 min (male, Beagle, dog): 106%
- % Remaining of Initial (n = 1), 30 min (male, Beagle, dog): 102%
- % Remaining of Initial (n = 1), 60 min (male, Beagle, dog): 110%
- half-life at 1 μM (male, Beagle, dog): > 1 h
- Concentration (μM) of analyte PEA, 0 min (male, CD-1, mouse): 0.030 µM
- Concentration (μM) of analyte PEA, 10 min (male, CD-1, mouse): 0.041 µM
- Concentration (μM) of analyte PEA, 20 min (male, CD-1, mouse): 0.033 µM
- Concentration (μM) of analyte PEA, 30 min (male, CD-1, mouse): 0.031 µM
- Concentration (μM) of analyte PEA, 60 min (male, CD-1, mouse): 0.015 µM
- % Remaining of Initial (n = 1), 0 min (male, CD-1, mouse): 100%
- % Remaining of Initial (n = 1), 10 min (male, CD-1, mouse): 87%
- % Remaining of Initial (n = 1), 20 min (male, CD-1, mouse): 87%
- % Remaining of Initial (n = 1), 30 min (male, CD-1, mouse): 99%
- % Remaining of Initial (n = 1), 60 min (male, CD-1, mouse): 75%
- half-life at 1 μM (male, CD-1, mouse): > 1 h
- Concentration (μM) of analyte PEA, 0 min (male, Sprague-Dawley, rat): 0.020 µM
- Concentration (μM) of analyte PEA, 10 min (male, Sprague-Dawley, rat): 0.035 µM
- Concentration (μM) of analyte PEA, 20 min (male, Sprague-Dawley, rat): 0.021 µM
- Concentration (μM) of analyte PEA, 30 min (male, Sprague-Dawley, rat): 0.021 µM
- Concentration (μM) of analyte PEA, 60 min (male, Sprague-Dawley, rat): 0.013 µM
- % Remaining of Initial (n = 1), 0 min (male, Sprague-Dawley, rat): 100%
- % Remaining of Initial (n = 1), 10 min (male, Sprague-Dawley, rat): 64%
- % Remaining of Initial (n = 1), 20 min (male, Sprague-Dawley, rat): 82%
- % Remaining of Initial (n = 1), 30 min (male, Sprague-Dawley, rat): 93%
- % Remaining of Initial (n = 1), 60 min (male, Sprague-Dawley, rat): 89%
- half-life at 1 μM (male, Sprague-Dawley, rat): > 1 h
Structure (SMILES): CCCCC/C=C\C/C=C\CCCCCCCC(=O)OCCNC(=O)CCCCCCCCCCCCCCC [Compound I-6]
